Patent US12660819B2, “Herbicidal derivatives” (SYNGENTA CROP PROTECTION AG, priority 2020, dated 2026)

Legend:
Type in all cases: in vivo
[1] = test system: Amaranthus retoflexus (AMARE); test: Pre-emergence Test (glasshouse, percentage damage to the plant); settings: 1000 g/ha unless otherwise stated, five-point scale
[2] = test system: Echinochloa crus-galli (ECHCG); test: as above; settings: 1000 g/ha unless otherwise stated, five-point scale
[3] = test system: Ipomoea hederacea (IPOHE); test: Post-emergence Test (glasshouse, percentage damage to the plant); settings: post-emergence spray, 1000 g/ha unless otherwise stated, evaluated after 13 days
How it was run: (§1)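 Damage was rated 13 days after treatment and expressed on a five-point scale: 5=81-100%, 4=61-80%, 3=41-60%, 2=21-40%, 1=0-20%. Spray was applied at 1000 g/ha unless otherwise stated, from acetone/water (50:50) with 0.5% Tween 20, to sown pots.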

[4] = test system: Echinochloa crus-galli (ECHCG); test: as above; settings: post-emergence spray, 1000 g/ha unless otherwise stated, evaluated after 13 days
How it was run: (§2)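 Percentage damage to the plant, assessed 13 days after application and scored 1–5 in 20% bands. Pots sown in standard soil received compound at 1000 g/ha unless otherwise stated, sprayed under 24/16 °C, 14 h light, 65% humidity.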

[5] = test system: Zea mays (ZEAMX); test: as above; settings: post-emergence spray, 1000 g/ha unless otherwise stated, evaluated after 13 days
How it was run: as §1

[6] = test system: Amaranthus retoflexus (AMARE); test: as above; settings: post-emergence spray, 1000 g/ha unless otherwise stated, evaluated after 13 days
How it was run: as §2

[7] = test system: Setaria faberi (SETFA); test: as above; settings: post-emergence spray, 1000 g/ha unless otherwise stated, evaluated after 13 days
How it was run: as §1

[8] = test system: Abutilon theophrasti (ABUTH); test: as above; settings: post-emergence spray, 1000 g/ha unless otherwise stated, evaluated after 13 days
How it was run: as §2

[9] = test system: Zea mays (ZEAMX); test: Pre-emergence Test (glasshouse, percentage damage to the plant); settings: 1000 g/ha unless otherwise stated, five-point scale
[10] = test system: Abutilon theophrasti (ABUTH); test: as above; settings: 1000 g/ha unless otherwise stated, five-point scale
[11] = test system: Setaria faberi (SETFA); test: as above; settings: 1000 g/ha unless otherwise stated, five-point scale
[12] = test system: Ipomoea hederacea (IPOHE); test: as above; settings: 1000 g/ha unless otherwise stated, five-point scale

## CCn1c(C)c(-c2cc(F)cc(Cl)c2)c(=O)c(C(=O)O)c1-c1ccc(Cl)c(Cl)c1 [Compound 62, 5-(3-chloro-5-fluoro-phenyl)-2-(3,4-dichlorophenyl)-1-ethyl-6-methyl-4-oxo-pyridine-3-carboxylic acid]
[1]
  percentage damage to the plant, AMARE: 1 (1=0-20%)
[2]
  percentage damage to the plant, ECHCG: 1 (1=0-20%)
[3]
  Post-emergence Test IPOHE, percentage damage to the plant (five-point scale): 2 (2=21-40%)
[4]
  Post-emergence Test ECHCG, percentage damage to the plant (five-point scale): 1 (1=0-20%)
[5]
  Post-emergence Test ZEAMX, percentage damage to the plant (five-point scale): 1 (1=0-20%)
[6]
  Post-emergence Test AMARE, percentage damage to the plant (five-point scale): 1 (1=0-20%)
[7]
  Post-emergence Test SETFA, percentage damage to the plant (five-point scale): 1 (1=0-20%)
[8]
  Post-emergence Test ABUTH, percentage damage to the plant (five-point scale): 2 (2=21-40%)
[9]
  percentage damage to the plant, ZEAMX: 1 (1=0-20%)
[10]
  percentage damage to the plant, ABUTH: 1 (1=0-20%)
[11]
  percentage damage to the plant, SETFA: 2 (2=21-40%)
[12]
  percentage damage to the plant, IPOHE: 1 (1=0-20%)

## CCn1c(C)c(-c2ccc(Cl)s2)c(=O)c(C(=O)O)c1-c1ccc(Cl)c(Cl)c1 [Compound 63, 5-(5-chloro-2-thienyl)-2-(3,4-dichlorophenyl)-1-ethyl-6-methyl-4-oxo-pyridine-3-carboxylic acid]
[1]
  percentage damage to the plant, AMARE: 4 (4=61-80%)
[2]
  percentage damage to the plant, ECHCG: 1 (1=0-20%)
[3]
  Post-emergence Test IPOHE, percentage damage to the plant (five-point scale): 3 (3=41-60%)
[4]
  Post-emergence Test ECHCG, percentage damage to the plant (five-point scale): 4 (4=61-80%)
[5]
  Post-emergence Test ZEAMX, percentage damage to the plant (five-point scale): 3 (3=41-60%)
[6]
  Post-emergence Test AMARE, percentage damage to the plant (five-point scale): 3 (3=41-60%)
[7]
  Post-emergence Test SETFA, percentage damage to the plant (five-point scale): 3 (3=41-60%)
[8]
  Post-emergence Test ABUTH, percentage damage to the plant (five-point scale): 3 (3=41-60%)
[9]
  percentage damage to the plant, ZEAMX: 1 (1=0-20%)
[10]
  percentage damage to the plant, ABUTH: 2 (2=21-40%)
[11]
  percentage damage to the plant, SETFA: 3 (3=41-60%)
[12]
  percentage damage to the plant, IPOHE: 2 (2=21-40%)

## CCn1c(C)c(-c2cccs2)c(=O)c(C(=O)O)c1-c1ccc(Cl)c(Cl)c1 [Compound 74, 2-(3,4-dichlorophenyl)-1-ethyl-6-methyl-4-oxo-5-(2-thienyl)pyridine-3-carboxylic acid]
[1]
  percentage damage to the plant, AMARE: 1 (1=0-20%)
[2]
  percentage damage to the plant, ECHCG: 3 (3=41-60%)
[3]
  Post-emergence Test IPOHE, percentage damage to the plant (five-point scale): 2 (2=21-40%)
[4]
  Post-emergence Test ECHCG, percentage damage to the plant (five-point scale): 3 (3=41-60%)
[5]
  Post-emergence Test ZEAMX, percentage damage to the plant (five-point scale): 2 (2=21-40%)
[6]
  Post-emergence Test AMARE, percentage damage to the plant (five-point scale): 1 (1=0-20%)
[7]
  Post-emergence Test SETFA, percentage damage to the plant (five-point scale): 3 (3=41-60%)
[8]
  Post-emergence Test ABUTH, percentage damage to the plant (five-point scale): 3 (3=41-60%)
[9]
  percentage damage to the plant, ZEAMX: 1 (1=0-20%)
[10]
  percentage damage to the plant, ABUTH: 2 (2=21-40%)
[11]
  percentage damage to the plant, SETFA: 4 (4=61-80%)
[12]
  percentage damage to the plant, IPOHE: 1 (1=0-20%)

## CCn1c(C)c(-c2cccc(C#N)c2)c(=O)c(C(=O)O)c1-c1ccnc(Cl)c1 [Compound 141, 2-(2-chloro-4-pyridyl)-5-(3-cyanophenyl)-1-ethyl-6-methyl-4-oxo-pyridine-3-carboxylic acid]
[1]
  percentage damage to the plant, AMARE: 0
[2]
  percentage damage to the plant, ECHCG: 0
[3]
  Post-emergence Test IPOHE, percentage damage to the plant (five-point scale): 0
[4]
  Post-emergence Test ECHCG, percentage damage to the plant (five-point scale): 0
[5]
  Post-emergence Test ZEAMX, percentage damage to the plant (five-point scale): 0
[6]
  Post-emergence Test AMARE, percentage damage to the plant (five-point scale): 0
[7]
  Post-emergence Test SETFA, percentage damage to the plant (five-point scale): 0
[8]
  Post-emergence Test ABUTH, percentage damage to the plant (five-point scale): 0
[9]
  percentage damage to the plant, ZEAMX: 0
[10]
  percentage damage to the plant, ABUTH: 0
[11]
  percentage damage to the plant, SETFA: 0
[12]
  percentage damage to the plant, IPOHE: 0

## CCn1c(C)c(-c2ccc(COC)cc2)c(=O)c(C(=O)O)c1-c1ccc(Cl)c(Cl)c1 [Compound 111, 2-(3,4-dichlorophenyl)-1-ethyl-5-[4-(methoxymethyl)phenyl]-6-methyl-4-oxo-pyridine-3-carboxylic acid]
[1]
  percentage damage to the plant, AMARE: 1 (1=0-20%)
[2]
  percentage damage to the plant, ECHCG: 4 (4=61-80%)
[3]
  Post-emergence Test IPOHE, percentage damage to the plant (five-point scale): 2 (2=21-40%)
[4]
  Post-emergence Test ECHCG, percentage damage to the plant (five-point scale): 3 (3=41-60%)
[5]
  Post-emergence Test ZEAMX, percentage damage to the plant (five-point scale): 2 (2=21-40%)
[6]
  Post-emergence Test AMARE, percentage damage to the plant (five-point scale): 2 (2=21-40%)
[7]
  Post-emergence Test SETFA, percentage damage to the plant (five-point scale): 4 (4=61-80%)
[8]
  Post-emergence Test ABUTH, percentage damage to the plant (five-point scale): 4 (4=61-80%)
[9]
  percentage damage to the plant, ZEAMX: 3 (3=41-60%)
[10]
  percentage damage to the plant, ABUTH: 2 (2=21-40%)
[11]
  percentage damage to the plant, SETFA: 5 (5=81-100%)
[12]
  percentage damage to the plant, IPOHE: 1 (1=0-20%)

## CCn1c(C)c(-c2cccc(Cl)c2)c(=O)c(C(=O)O)c1-c1ccnc(Cl)c1 [Compound 144, 5-(3-chlorophenyl)-2-(2-chloro-4-pyridyl)-1-ethyl-6-methyl-4-oxo-pyridine-3-carboxylic acid]
[1]
  percentage damage to the plant, AMARE: 1 (1=0-20%)
[2]
  percentage damage to the plant, ECHCG: 4 (4=61-80%)
[3]
  Post-emergence Test IPOHE, percentage damage to the plant (five-point scale): 2 (2=21-40%)
[4]
  Post-emergence Test ECHCG, percentage damage to the plant (five-point scale): 2 (2=21-40%)
[5]
  Post-emergence Test ZEAMX, percentage damage to the plant (five-point scale): 2 (2=21-40%)
[6]
  Post-emergence Test AMARE, percentage damage to the plant (five-point scale): 2 (2=21-40%)
[7]
  Post-emergence Test SETFA, percentage damage to the plant (five-point scale): 3 (3=41-60%)
[8]
  Post-emergence Test ABUTH, percentage damage to the plant (five-point scale): 2 (2=21-40%)
[9]
  percentage damage to the plant, ZEAMX: 2 (2=21-40%)
[10]
  percentage damage to the plant, ABUTH: 1 (1=0-20%)
[11]
  percentage damage to the plant, SETFA: 4 (4=61-80%)
[12]
  percentage damage to the plant, IPOHE: 2 (2=21-40%)

## CCn1c(C)c(-c2cccc(Cl)c2)c(=O)c(C(=O)O)c1-c1ccc(Cl)c(Cl)n1 [Compound 149, 5-(3-chlorophenyl)-2-(5,6-dichloro-2-pyridyl)-1-ethyl-6-methyl-4-oxo-pyridine-3-carboxylic acid]
[1]
  percentage damage to the plant, AMARE: 0
[2]
  percentage damage to the plant, ECHCG: 0
[3]
  Post-emergence Test IPOHE, percentage damage to the plant (five-point scale): 2 (2=21-40%)
[4]
  Post-emergence Test ECHCG, percentage damage to the plant (five-point scale): 0
[5]
  Post-emergence Test ZEAMX, percentage damage to the plant (five-point scale): 1 (1=0-20%)
[6]
  Post-emergence Test AMARE, percentage damage to the plant (five-point scale): 1 (1=0-20%)
[7]
  Post-emergence Test SETFA, percentage damage to the plant (five-point scale): 0
[8]
  Post-emergence Test ABUTH, percentage damage to the plant (five-point scale): 1 (1=0-20%)
[9]
  percentage damage to the plant, ZEAMX: 0
[10]
  percentage damage to the plant, ABUTH: 0
[11]
  percentage damage to the plant, SETFA: 0
[12]
  percentage damage to the plant, IPOHE: 0

## CCn1c(C)c(-c2ccc(SC)cc2)c(=O)c(C(=O)O)c1-c1ccc(Cl)c(Cl)c1 [Compound 93, 2-(3,4-dichlorophenyl)-1-ethyl-6-methyl-5-(4-methylsulfanylphenyl)-4-oxo-pyridine-3-carboxylic acid]
[1]
  percentage damage to the plant, AMARE: 1 (1=0-20%)
[2]
  percentage damage to the plant, ECHCG: 3 (3=41-60%)
[3]
  Post-emergence Test IPOHE, percentage damage to the plant (five-point scale): 2 (2=21-40%)
[4]
  Post-emergence Test ECHCG, percentage damage to the plant (five-point scale): 3 (3=41-60%)
[5]
  Post-emergence Test ZEAMX, percentage damage to the plant (five-point scale): 1 (1=0-20%)
[6]
  Post-emergence Test AMARE, percentage damage to the plant (five-point scale): 1 (1=0-20%)
[7]
  Post-emergence Test SETFA, percentage damage to the plant (five-point scale): 2 (2=21-40%)
[8]
  Post-emergence Test ABUTH, percentage damage to the plant (five-point scale): 2 (2=21-40%)
[9]
  percentage damage to the plant, ZEAMX: 1 (1=0-20%)
[10]
  percentage damage to the plant, ABUTH: 1 (1=0-20%)
[11]
  percentage damage to the plant, SETFA: 4 (4=61-80%)
[12]
  percentage damage to the plant, IPOHE: 1 (1=0-20%)
